In assay [1] the test system is NT2 cells. Kind of assay: DNA fragmentation (low molecular weight DNA ladder) in NT2 cells. In kind it is cell-based. As for the experimental part: FIG. 4. […] NT2 cells were transiently transfected with CLN3 (lanes 1, 3 and 5) or vector alone (lanes 2, 4 and 6) followed by treatment with either 10 μg/ml etoposide (lanes 1 and 2) or 500 nM staurosporine (lanes 3 and 4) or 1 μg/ml vincristine (lanes 5 and 6). Low molecular weight DNA was extracted and analyzed on a 2% agarose gel in Tris-Borate-EDTA buffer (Rosenbaum et al, Ann. Neurol. 36, 864-870 (1994)).
A hallmark of apoptosis is the fragmentation of nuclear DNA into nucleosome-sized fragments creating a DNA ladder of 180 bp and its concatamers (Arends M J, et al., Am. J. Pathol. 136: 593-608 (1990)). […] NT2 cells were transiently transfected with CLN3 or vector alone, then treated with the drugs prior to the extraction of low molecular weight DNA (Rosenbaum D M, et al., Ann. Neurol. 36: 864-870 (1994)).

Assay [2] deals with NT2 cells. Put plainly: Dose response of NT2 cell viability to drugs, trypan blue method. Particulars: for IC50: Homo sapiens, 18 hours, trypan blue, read-out: dose resulting in 50% killing at 18 hours. The assay is classed as cell-based. As for the experimental part:
Drug treatments: Dose response curves were established for etoposide, vincristine and staurosporine in NT2 cells (FIGS. 3Ai, 3Bi and 3Ci). […] Survival represents the number of drug treated viable cells divided by the number of untreated viable cells and expressed as a percentage. Protection is calculated as the difference in survival between CLN3-overexpressing cells and the vector-transfected control cells. The degree of protection is calculated as the difference in survival between treated CLN3-overexpressing and vector control cells divided by the survival of treated vector control cells. The values are from three separate experiments, each of which was carried out in triplicate (FIGS. 3Aii, 3Bii, and 3Cii).

Values after ≈ are worked out from the molar mass of the structure shown.

On to `COc1cc([C@@H]2c3cc4c(cc3[C@@H](O[C@@H]3O[C@@H]5CO[C@@H](C)O[C@H]5[C@H](O)[C@H]3O)[C@H]3COC(=O)[C@H]23)OCO4)cc(OC)c1O` [etoposide], for which the “DNA fragmentation in NT2 cells caused by drug” value in assay [1] is listed as “cause DNA fragmentation”. Also, the IC50 in assay [2] (NT2 cells) is 10 µg/mL (≈ 17 µM).
Taken in the same sequence, the figures for `CC[C@]1(O)C[C@H]2CN(CCc3c([nH]c4ccccc34)[C@@](C(=O)OC)(c3cc4c(cc3OC)N(C=O)[C@H]3[C@@](O)(C(=O)OC)[C@H](OC(C)=O)[C@]5(CC)C=CCN6CC[C@]43[C@@H]65)C2)C1` [vincristine] were “cause DNA fragmentation” and 1 µg/mL (≈ 1.21 µM).
In the case of `CN[C@@H]1C[C@H]2O[C@@](C)([C@@H]1OC)n1c3ccccc3c3c4c(c5c6ccccc6n2c5c31)C(=O)NC4` [staurosporine], the “DNA fragmentation in NT2 cells caused by drug” value in assay [1] is reported as “cause DNA fragmentation”. In addition, the “optimal concentration for causing apoptosis in NT2 cells” value in assay [2] (NT2 cells, dose response curves) came to 500 nM.
For `CCCCCCCCCCCCC/C=C/[C@@H](O)[C@H](CO)NC(C)=O` [C2-ceramide], the “apoptosis induction in NT2 cells” value in assay [2] (increasing concentrations, counted at 6, 12, 18 and 24 hour) is “effective apoptotic agent”.

(Values after patent publication US8003327B2, “Methods of screening for risk of proliferative disease and methods for the treatment of proliferative disease” (Duke University, priority 1998, dated 2011).)
